Test results taken from article PMC6950567, “Evaluation of Marine Diindolinonepyrane in Vitro and in Vivo: Permeability Characterization in Caco-2 Cells Monolayer and Pharmacokinetic Properties in Beagle Dogs” (Marine Drugs, 2019).
“Also recorded” adds a separate entry of the source. Where two headings read alike, the source gives them in different places.

What was measured:
P-gp = target: T1, P-gp (Homo sapiens, UniProt P08183); assay: P-gp substrate assessment from Caco-2 bidirectional transport; assay type: in vitro ADME; conditions: suggested from Caco-2 transport with 0.1% BSA
T1 construct: host or cells: Caco-2
T1 sequence (P08183 whole entry): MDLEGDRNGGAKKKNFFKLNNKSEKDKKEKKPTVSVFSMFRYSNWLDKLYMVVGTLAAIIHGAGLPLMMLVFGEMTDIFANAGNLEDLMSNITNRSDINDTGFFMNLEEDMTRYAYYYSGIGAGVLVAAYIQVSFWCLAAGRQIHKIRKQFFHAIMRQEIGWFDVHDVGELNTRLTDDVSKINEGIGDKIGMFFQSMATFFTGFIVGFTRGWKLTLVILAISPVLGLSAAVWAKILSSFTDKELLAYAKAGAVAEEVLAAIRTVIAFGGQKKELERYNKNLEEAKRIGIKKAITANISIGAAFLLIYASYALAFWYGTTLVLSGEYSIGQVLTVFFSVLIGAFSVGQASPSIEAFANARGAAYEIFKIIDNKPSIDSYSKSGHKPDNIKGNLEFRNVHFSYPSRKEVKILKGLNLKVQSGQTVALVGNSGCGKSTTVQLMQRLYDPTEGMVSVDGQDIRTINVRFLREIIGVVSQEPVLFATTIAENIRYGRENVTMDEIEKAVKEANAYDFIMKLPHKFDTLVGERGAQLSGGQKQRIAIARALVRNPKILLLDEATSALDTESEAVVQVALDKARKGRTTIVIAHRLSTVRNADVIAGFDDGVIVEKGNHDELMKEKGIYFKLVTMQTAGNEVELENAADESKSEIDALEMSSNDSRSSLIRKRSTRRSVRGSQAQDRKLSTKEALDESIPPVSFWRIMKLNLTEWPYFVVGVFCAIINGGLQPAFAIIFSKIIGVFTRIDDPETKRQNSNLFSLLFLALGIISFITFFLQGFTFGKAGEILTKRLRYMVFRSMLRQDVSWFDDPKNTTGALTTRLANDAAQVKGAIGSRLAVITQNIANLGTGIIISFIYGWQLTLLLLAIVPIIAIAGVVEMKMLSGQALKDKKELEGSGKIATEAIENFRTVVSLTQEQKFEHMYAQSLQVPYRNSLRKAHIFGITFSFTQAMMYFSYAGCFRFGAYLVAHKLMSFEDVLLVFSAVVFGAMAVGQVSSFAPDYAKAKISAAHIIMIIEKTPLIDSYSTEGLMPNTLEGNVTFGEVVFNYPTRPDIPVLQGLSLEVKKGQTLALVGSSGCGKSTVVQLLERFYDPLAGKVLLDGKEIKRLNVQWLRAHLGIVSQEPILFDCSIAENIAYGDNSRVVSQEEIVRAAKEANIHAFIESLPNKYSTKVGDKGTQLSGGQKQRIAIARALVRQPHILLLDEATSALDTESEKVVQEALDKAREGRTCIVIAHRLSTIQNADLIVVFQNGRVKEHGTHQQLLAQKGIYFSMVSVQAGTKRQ
Protocol: The Caco-2 cell model was established successfully, and the transwell plate was then rinsed with HBSS solution three times and cultured in an incubator at 37 °C for 30 min to remove the interfering substances on the cell surface. For transfer in the AP→BL direction, 0.075 mL drug solution was added to the AP side as the supply pool, and 0.25 mL HBSS solution was added to the BL side as the receiving pool. In the BL→AP direction, 0.25 mL compound solution was added to the BL side as the supply pool, and 0.075 mL HBSS solution was added to the AP side as the receiving pool. The transwell plate was then cultured in an incubator at 37 °C for 2 h. Samples on the AP side and BL side were collected, respectively. Then, acetonitrile containing an internal label was added to each upper chamber to lyse transport membranes. The total recovery was calculated by collecting the amount of lead compound absorbed on the membrane surface or accumulated in the cell. Finally, the concentration of each sample was calculated as the ratio of the peak area between the compound and the inner target through mass spectrum analysis (API 4000). […] Vr is the volume in the receiving hole (mL); A is the transport membrane area; and C0 is the compound initiation concentration (µM). […]

[1] = Short-term stability in beagle dog plasma; assay type: in vitro ADME; conditions: 24 h, residual/initial
Protocol: The stability of 2,5-BHPA was assayed at 1, 100, and 400 mg/L. The short-term stability of 2,5-BHPA stored at 37 °C was determined after 24 h. Stability was defined as the amount of 2,5-BHPA residual after 24 h divided by the initial amount.

[2] = Pharmacokinetics after intravenous injection in beagle dogs; assay type: in vivo; conditions: for Cmax / MRT / clearance / half-life: male, dog, whole blood
Protocol: Male beagle dogs (SPF, 10.2–10.8 kg, aged 2 years) were provided by the Xingang Experimental Animal Co., Ltd. (Shanghai, China). All dogs were fed with standard laboratory food and water ad libitum at least 3 days prior to the experiments in an environmentally controlled room (12 h dark-light cycle; ~25 °C, 60% humidity, GB14925-2001). All protocols and procedures were approved by the Institutional Animal Care and Use Committee of Shanghai Ocean University (Approval number: 13-0012). The blood and tissues of the dogs were removed while the dogs were ether anesthetized. Their plasma was collected from the fossa orbitalis vein. Every effort was made to minimize animal pain and suffering.
2,5-BHPA was dissolved in normal saline with NaHCO3 as a solvent (2,5-BHPA/NaHCO3, m/m, 1:1), which was agitated overnight on a magnetic stirrer. Subsequently, it was diluted to different concentrations, filtered, and stored in a refrigerator at 4 °C. The dose was adjusted according to the body weight of the beagle dogs in a volume of 200 µL, and 2,5-BHPA was administered by intravenous injection (7.5, 5.0, and 2.5 mg/kg). Subcutaneous injection in the forearm was used in the experiment.
Nine dogs were randomly divided into three groups (n = 3) and fasted for 24 h with water ad libidum. 2,5-BHPA was administered by intravenous injection (7.5, 5.0, and 2.5 mg/kg). The volume of the three sample levels was identical. The blood samples of 200 µL were drawn at 0, 1, 5, 15, 30, 40, 60, 120, and 240 min after drug treatment, and the samples were immediately stored with 1.8 mL of methanol (methanol:blood = 9:1, v/v). The samples were mixed and centrifuged at 5000× g for 15 min at RT, and the supernatants were filtered for HPLC analysis.
The data were processed with Microsoft Excel 2013 edited by Microsoft (Seattle, WA, USA) and SPSS V25.0 edited by SPSS (Chicago, IL, USA). PKsolver V2.0 edited by China Pharmaceutical University (Nanjing, China) was used to calculate the pharmacokinetic parameters and the compartment model. The image was processed with Origin 9.0 software edited by Origin Lab (Northampton, MA, USA).

[3] = design: method as in PMID 24216275; conditions: rats, cited from earlier work
fibrinolytic enzyme = system: fibrinolytic enzyme; design: method as in earlier work; conditions: cited from earlier work
[4] = beagle dogs, intravenous, 2.5 mg·kg^−1
[5] = beagle dogs, intravenous, 5.0 mg·kg^−1
[6] = beagle dogs, intravenous, 7.5 mg·kg^−1

substrate of P-gp (P-gp): not a substrate of P-gp
Stability ([1]; 1.0 μg·mL^−1, 37 °C): 94.69 ± 5.37%
Stability ([1]; 100 μg·mL^−1, 37 °C): 98.39 ± 2.25%
Stability ([1]; 400 μg·mL^−1, 37 °C): 97.63 ± 5.91%
K10 [2, 4]: 0.055 ± 0.021 min⁻¹
K12 [2, 4]: 0.009 ± 0.004 min⁻¹
K21 [2, 4]: 0.018 ± 0.001 min⁻¹
K10 [2, 5]: 0.075 ± 0.012 min⁻¹
K12 [2, 5]: 0.017 ± 0.002 min⁻¹
K21 [2, 5]: 0.018 ± 0.001 min⁻¹
K10 [2, 6]: 0.051 ± 0.015 min⁻¹
K12 [2, 6]: 0.007 ± 0.004 min⁻¹
K21 [2, 6]: 0.017 ± 0.003 min⁻¹
half-life (T1/2) in dogs compared with rats ([2]; dogs (this study) versus rats [14]): about two times longer than in rats
dose linearity of pharmacokinetics ([2]; dogs, intravenous, dose range 2.5-7.5 mg/kg, from CL and MRT): linear pharmacokinetic characteristics
Cmax [2, 4]: 13600 ± 2760 ng/mL
MRT [2, 4]: 28.7 min
clearance [2, 4]: 9.2 ± 0.6 mL/min/kg
half-life [2, 4]: 49 ± 2 min
Cmax [2, 5]: 48600 ± 5530 ng/mL
MRT [2, 5]: 26.2 min
clearance [2, 5]: 7.1 ± 0.8 mL/min/kg
half-life [2, 5]: 48 ± 2 min
Cmax [2, 6]: 56500 ± 6230 ng/mL
MRT [2, 6]: 28.2 min
clearance [2, 6]: 6.2 ± 0.4 mL/min/kg
half-life [2, 6]: 49 ± 2 min
SMILES: CC(C)=CCCC(C)=CCCC1(C)Oc2c(c(O)cc3c2CN(CCCC(C(=O)O)N2Cc4c(cc(O)c5c4OC(C)(CCC=C(C)CCC=C(C)C)C(O)C5)C2=O)C3=O)CC1O (centres unmarked) [2,5-BHPA, 2,5-Bis-[8-(4,8-dimethyl-nona-3,7-dienyl)-5,7-dihydroxy-8-methyl-3-keto-1,2,7,8-tertahydro-6H-pyran[a]isoindol-2-yl]-pentanoic acid]
compartment model of plasma concentration-time curves ([2]; beagle dogs, intravenous, 7.5, 5.0, 2.5 mg·kg^−1, weight = 1/c^2): fitted well to a two-compartment model; also recorded: consistent with the two-compartment model
half-life ([3]; intravenous (IV) bolus): ~ 22 min
detection in the brain [3]: not the case in rats
tissue with the highest concentration level (liver) [3]: same as in rats
fibrinolytic activity (fibrinolytic enzyme): has been shown to have fibrinolytic activity
